Test results reported in patent publication US11484539B2, “Compounds and their uses for alleviating menopause-associated symptoms” (Estetra SPRL, priority 2018, dated 2022).

Tested on: post-menopausal women
Test: Weekly frequency of moderate to severe VMS, dose-finding study
Type: in vivo
Conditions: for Difference with placebo, LS adjusted mean, absolute change in weekly frequency of moderate to severe VMS / Difference with placebo, LS adjusted mean, relative change in weekly frequency of moderate to severe VMS: 15 mg E4 vs placebo; for Differences with placebo (including ineffective doses 2.5 mg and 5 mg), relative change in weekly frequency of moderate to severe VMS, LS adjusted mean / Differences with placebo (including ineffective doses 2.5 mg and 5 mg), relative change in weekly frequency of moderate to severe VMS, p_value: 15.0 mg vs 0 mg; for Relative change in weekly frequency of moderate to severe VMS, LS adjusted mean: analysis with placebo grouped with 2.5 and 5 mg; for Covariate significance, covariate trt1, p_value, relative change in weekly frequency of moderate to severe VMS: 10 mg, 15 mg vs placebo grouped with 2.5 and 5 mg
Description: To determine the Minimum Effective Dose (MED), firstly the selection criteria required that patients presented at least 7 moderate to severe VMS/day or at least 50 moderate to severe VMS/week in the week preceding randomization. Secondly, a placebo group was included in a double-blind fashion. Thirdly, the total patient number was such that statistical significance could be obtained between separate arms of the study. Fourthly, the absolute change from baseline in weekly frequency of moderate to severe VMS was taken into account. An analysis of covariance (ANCOVA) was performed based on the untransformed change in weekly frequency of moderate to severe VMS from baseline. Finally, the change in severity from baseline was evaluated. For this, the Severity Scoring System of VMS was documented by the subjects as follows: • a score of Mild (1) for a sensation of heat without sweating; • a score of Moderate (2) for a sensation of heat with sweating/the subject is able to continue activity; and • a score of Severe (3) for a sensation of heat with sweating/which causes cessation of activity.
Enrolment was approximately 18 months. Individual subject participation was up to 27 weeks: up to 6 weeks pre-screening and washout, up to 4 weeks screening and run-in period, up to 91 days (13 weeks) of E4/placebo treatment followed by 2 weeks (14 days) of progestin therapy and a Follow up visit 1 week after completion of progestin therapy in non-hysterectomised subjects only.
To define the minimum effective dose (MED) of the oral dose of E4 by evaluating changes in frequency and in severity of moderate to severe vasomotor symptoms (VMS).
This was a prospective, multicentre, randomised, placebo-controlled, double-blinded, dose-finding study.
Eligible subjects were hysterectomised and non-hysterectomised post-menopausal women aged 40 to 65 years, inclusive, presenting at least 7 moderate to severe hot flushes/day or at least 50 moderate to severe hot flushes/week.
The subjects have met all of the following inclusion criteria at the randomization visit. These criteria were assessed during the screening period: • 1. Women aged 40 to 65 years, inclusive, presenting at least 7 moderate to severe hot flushes/day or at least 50 moderate to severe hot flushes/week in the week preceding randomization. • 2. Body Mass Index (BMI) between 18.0 and 35.0 kg/m^2, inclusive. • 3. Post-menopausal status defined as levels of follicle stimulating hormone (FSH) >40 IU/L and: • amenorrhoea for at least 12 consecutive months or, • amenorrhoea for at least 6 months with estradiol (E2)<20 pg/mL or, • at least 6 weeks post-surgical bilateral oophorectomy with or without hysterectomy with a copy of the pathology report or a statement on letterhead from the subject's physician documenting both ovaries were removed is required. • 4. For non-hysterectomised women: intact uterus with bi-layer endometrial thickness […] on TVUS. • 5. Negative pregnancy test. • 6. Good physical and mental health, in the judgement of the Principal Investigator (PI), on the basis of medical, surgical and gynaecological history, physical examination, gynaecological examination, clinical laboratory, and vital signs. • 7. Subject has provided signed and dated written informed consent before admission to the study. • 8. Subject is able to understand and comply with the protocol requirements, instructions, and protocol-stated restrictions. Exclusion Criteria:
All treatments (Estetrol, hereinafter, E4, [2.5 mg, 5 mg, 10 mg, 15 mg] capsule) were administered once daily (QD) per os for at least 12 consecutive weeks until the last biological assessments (Day 91 maximum) had been performed.
In order to analyse the data recorded in this study, treatment groups have been compared using an ANCOVA (analysis of covariance) with respect to the change in weekly frequency of moderate to severe VMS from baseline to weeks 4 and 12. […]

[1] = week 4, ANCOVA with study centre
[2] = week 12, ANCOVA with study centre

Compound: C[C@]12CC[C@@H]3c4ccc(O)cc4CC[C@H]3[C@@H]1[C@@H](O)[C@@H](O)[C@@H]2O [E4, 1,3,5 (10)-estratrien-3,15alpha,16alpha,17beta-tetrol]
- Mean change from baseline in weekly frequency of moderate to severe VMS (15 mg E4 QD per os, week 4): −41.43
- Relative change (% from baseline) in weekly frequency of moderate to severe VMS, mean (15 mg E4 QD per os, week 4): −67%
- Mean change from baseline in weekly frequency of moderate to severe VMS (15 mg E4 QD per os, week 5): −44.34
- Relative change (% from baseline) in weekly frequency of moderate to severe VMS, mean (15 mg E4 QD per os, week 5): −72%
- Mean change from baseline in weekly frequency of moderate to severe VMS (15 mg E4 QD per os, week 6): −46.58
- Relative change (% from baseline) in weekly frequency of moderate to severe VMS, mean (15 mg E4 QD per os, week 6): −76%
- Mean change from baseline in weekly frequency of moderate to severe VMS (15 mg E4 QD per os, week 7): −48.51
- Relative change (% from baseline) in weekly frequency of moderate to severe VMS, mean (15 mg E4 QD per os, week 7): −79%
- Mean change from baseline in weekly frequency of moderate to severe VMS (15 mg E4 QD per os, week 8): −48.35
- Relative change (% from baseline) in weekly frequency of moderate to severe VMS, mean (15 mg E4 QD per os, week 8): −79%
- Mean change from baseline in weekly frequency of moderate to severe VMS (15 mg E4 QD per os, week 9): −49.62
- Relative change (% from baseline) in weekly frequency of moderate to severe VMS, mean (15 mg E4 QD per os, week 9): −81%
- Mean change from baseline in weekly frequency of moderate to severe VMS (15 mg E4 QD per os, week 10): −48.88
- Relative change (% from baseline) in weekly frequency of moderate to severe VMS, mean (15 mg E4 QD per os, week 10): −80%
- Mean change from baseline in weekly frequency of moderate to severe VMS (15 mg E4 QD per os, week 11): −49.92
- Relative change (% from baseline) in weekly frequency of moderate to severe VMS, mean (15 mg E4 QD per os, week 11): −82%
- Mean change from baseline in weekly frequency of moderate to severe VMS (15 mg E4 QD per os, week 12): −50.94
- Relative change (% from baseline) in weekly frequency of moderate to severe VMS, mean (15 mg E4 QD per os, week 12): −84%
- Difference with placebo, LS adjusted mean, absolute change in weekly frequency of moderate to severe VMS [1]: −9.804
- Difference with placebo, LS adjusted mean, relative change in weekly frequency of moderate to severe VMS [1]: −0.1564
- Difference with placebo, LS adjusted mean, absolute change in weekly frequency of moderate to severe VMS (week 4, without site effect): −10.71
- Difference with placebo, LS adjusted mean, relative change in weekly frequency of moderate to severe VMS (week 4, without site effect): −0.1703
- Difference with placebo, LS adjusted mean, absolute change in weekly frequency of moderate to severe VMS [2]: −10.09
- Difference with placebo, LS adjusted mean, relative change in weekly frequency of moderate to severe VMS [2]: −0.1585
- Difference with placebo, LS adjusted mean, absolute change in weekly frequency of moderate to severe VMS (week 12, without site effect): −10.98
- Difference with placebo, LS adjusted mean, relative change in weekly frequency of moderate to severe VMS (week 12, without site effect): −0.1723
- Reduction in the frequency of moderate to severe VMS when compared to baseline (15 mg daily dose): over 80%
- Responders: patients showing a response of 50% or more (relative change from baseline in weekly frequency of moderate to severe VMS) (15 mg daily dose, week 12): 91.8%
- Responders: patients showing a response of 75% or more (weekly frequency of moderate to severe VMS) (15 mg daily dose, week 12): 77.6%
- Differences with placebo (including ineffective doses 2.5 mg and 5 mg), relative change in weekly frequency of moderate to severe VMS, LS adjusted mean (week 4): −0.1797
- Differences with placebo (including ineffective doses 2.5 mg and 5 mg), relative change in weekly frequency of moderate to severe VMS, p_value (week 4): 0.00218
- Differences with placebo (including ineffective doses 2.5 mg and 5 mg), relative change in weekly frequency of moderate to severe VMS, LS adjusted mean (week 12): −0.1826
- Differences with placebo (including ineffective doses 2.5 mg and 5 mg), relative change in weekly frequency of moderate to severe VMS, p_value (week 12): 0.00099
- Relative change (% from baseline) in weekly frequency of moderate to severe VMS, mean (15 mg, Week 12): −84%
- Relative change (% from baseline) in weekly frequency of moderate to severe VMS, mean (15 mg, week 0): 0%
- Relative change (% from baseline) in weekly frequency of moderate to severe VMS, mean (15 mg, week 1): −22%
- Relative change (% from baseline) in weekly frequency of moderate to severe VMS, mean (15 mg, week 2): −46%
- Relative change (% from baseline) in weekly frequency of moderate to severe VMS, mean (15 mg, week 3): −57%
- Relative change (% from baseline) in weekly frequency of moderate to severe VMS, mean (15 mg, week 4): −67%
- Relative change in weekly frequency of moderate to severe VMS, LS adjusted mean (15 mg, week 4): −0.6475
- Relative change (% from baseline) in weekly frequency of moderate to severe VMS, mean (15 mg, week 5): −72%
- Relative change (% from baseline) in weekly frequency of moderate to severe VMS, mean (15 mg, week 6): −76%
- Relative change (% from baseline) in weekly frequency of moderate to severe VMS, mean (15 mg, week 7): −79%
- Relative change (% from baseline) in weekly frequency of moderate to severe VMS, mean (15 mg, week 8): −79%
- Relative change (% from baseline) in weekly frequency of moderate to severe VMS, mean (15 mg, week 9): −81%
- Relative change (% from baseline) in weekly frequency of moderate to severe VMS, mean (15 mg, week 10): −80%
- Relative change (% from baseline) in weekly frequency of moderate to severe VMS, mean (15 mg, week 11): −82%
- Relative change in weekly frequency of moderate to severe VMS, LS adjusted mean (15 mg, week 12): −0.8006
- Minimal Effective Dose for the alleviation of VMS (perimenopausal and postmenopausal women): about 15 mg daily
- Efficacy on vasomotor parameters (two lowest doses tested (2.5 mg per day and 5 mg per day)): did not show efficacy
- Covariate significance, covariate trt1, p_value, relative change in weekly frequency of moderate to severe VMS (week 4): 0.0039
- Covariate significance, covariate trt1, p_value, relative change in weekly frequency of moderate to severe VMS (week 12): 0.0017
